In PubChem BioAssay AID2060500 (Molecular Pharmacology Branch, DTP, NCI, 2025):

Tested on: 596521-263-R-J1-PDC complex spheroids, viability % of control
Experiment: Anticancer human tumor 596521-263-R-J1-PDC patient-derived soft tissue sarcoma cell line growth inhibition [GQUAD]
Settings: for IC50: curve of first compound; for viability, T/C: stronger effect = lower value
Outline: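 Multi-cell-type spheroids of tumor cells with HUVEC and mesenchymal stem cells, treated with drug combinations. Concentrations descend in half-log steps from near clinical Cmax, or from 10 microM where Cmax is unknown; viability read-out.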

[1] = second compound 0.0316 µM, first compound 0.0316 µM
[2] = second compound 0.0316 µM, first compound 0.316 µM
[3] = second compound 0.1 µM, first compound 0.0316 µM
[4] = second compound 0.1 µM, first compound 0.316 µM
[5] = second compound 0.316 µM, first compound 0.0316 µM
[6] = second compound 0.316 µM, first compound 0.316 µM
[7] = second compound 1 µM, first compound 0.0316 µM
[8] = second compound 1 µM, first compound 0.316 µM
[9] = second compound 3.16 µM, first compound 0.0316 µM
[10] = second compound 3.16 µM, first compound 0.316 µM
[11] = second compound 10 µM, first compound 0.0316 µM
[12] = second compound 10 µM, first compound 0.316 µM
[13] = second compound 0.0316 µM, first compound 0.1 µM
[14] = second compound 0.0316 µM, first compound 1 µM
[15] = second compound 0.0316 µM, first compound 3.16 µM
[16] = second compound 0.0316 µM, first compound 10 µM
[17] = second compound 0.1 µM, first compound 0.1 µM
[18] = second compound 0.1 µM, first compound 1 µM
[19] = second compound 0.1 µM, first compound 3.16 µM
[20] = second compound 0.1 µM, first compound 10 µM
[21] = second compound 0.316 µM, first compound 0.1 µM
[22] = second compound 0.316 µM, first compound 1 µM
[23] = second compound 0.316 µM, first compound 3.16 µM
[24] = second compound 0.316 µM, first compound 10 µM
[25] = second compound 1 µM, first compound 0.1 µM
[26] = second compound 1 µM, first compound 1 µM
[27] = second compound 1 µM, first compound 3.16 µM
[28] = second compound 1 µM, first compound 10 µM
[29] = second compound 3.16 µM, first compound 0.1 µM
[30] = second compound 3.16 µM, first compound 1 µM
[31] = second compound 3.16 µM, first compound 3.16 µM
[32] = second compound 3.16 µM, first compound 10 µM
[33] = second compound 10 µM, first compound 0.1 µM
[34] = second compound 10 µM, first compound 1 µM
[35] = second compound 10 µM, first compound 3.16 µM
[36] = second compound 10 µM, first compound 10 µM
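Further: spheroids exposed to drugs for 7 days before viability reading.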
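Wherever viability, T/C is given: 100% = DMSO vehicle control viability.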

Cc1[nH]c2ccccc2c1CCNCc1ccc(/C=C/C(=O)NO)cc1 + Cc1[nH]c2ccc(F)cc2c1-c1nc2c3cccnc3c3ncccc3c2[nH]1
IC50 (second compound 0.0316 µM): > 316 nM
IC50 (second compound 0.1 µM): > 316 nM
IC50 (second compound 0.316 µM): > 316 nM
IC50 (second compound 1 µM): > 316 nM
IC50 (second compound 3.16 µM): > 316 nM
IC50 (second compound 10 µM): > 316 nM
viability, T/C (second compound 0.0316 µM, first compound 0.000999 µM): 108%
viability, T/C (second compound 0.0316 µM, first compound 0.00316 µM): 97%
viability, T/C (second compound 0.0316 µM, first compound 0.00999 µM): 100%
viability, T/C [1]: 82%
viability, T/C (second compound 0.0316 µM, first compound 0.0999 µM): 96.4%
viability, T/C [2]: 90.1%
viability, T/C (second compound 0.1 µM, first compound 0.000999 µM): 99.3%
viability, T/C (second compound 0.1 µM, first compound 0.00316 µM): 90.6%
viability, T/C (second compound 0.1 µM, first compound 0.00999 µM): 94.2%
viability, T/C [3]: 91.3%
viability, T/C (second compound 0.1 µM, first compound 0.0999 µM): 86.9%
viability, T/C [4]: 92.7%
viability, T/C (second compound 0.316 µM, first compound 0.000999 µM): 102%
viability, T/C (second compound 0.316 µM, first compound 0.00316 µM): 94.7%
viability, T/C (second compound 0.316 µM, first compound 0.00999 µM): 93.2%
viability, T/C [5]: 94.3%
viability, T/C (second compound 0.316 µM, first compound 0.0999 µM): 87%
viability, T/C [6]: 94.9%
viability, T/C (second compound 1 µM, first compound 0.000999 µM): 95.9%
viability, T/C (second compound 1 µM, first compound 0.00316 µM): 99.6%
viability, T/C (second compound 1 µM, first compound 0.00999 µM): 91.4%
viability, T/C [7]: 83.9%
viability, T/C (second compound 1 µM, first compound 0.0999 µM): 90.1%
viability, T/C [8]: 94.2%
viability, T/C (second compound 3.16 µM, first compound 0.000999 µM): 82.6%
viability, T/C (second compound 3.16 µM, first compound 0.00316 µM): 82.2%
viability, T/C (second compound 3.16 µM, first compound 0.00999 µM): 91%
viability, T/C [9]: 90.1%
viability, T/C (second compound 3.16 µM, first compound 0.0999 µM): 84.1%
viability, T/C [10]: 88.8%
viability, T/C (second compound 10 µM, first compound 0.000999 µM): 81.2%
viability, T/C (second compound 10 µM, first compound 0.00316 µM): 67.2%
viability, T/C (second compound 10 µM, first compound 0.00999 µM): 85%
viability, T/C [11]: 75.5%
viability, T/C (second compound 10 µM, first compound 0.0999 µM): 76.4%
viability, T/C [12]: 72%

Nc1ccn(C2OC(CO)C(O)C2(F)F)c(=O)n1 (stereo not drawn) + Cc1[nH]c2ccc(F)cc2c1-c1nc2c3cccnc3c3ncccc3c2[nH]1
IC50 (second compound 0.0316 µM): 34.7 nM
IC50 (second compound 0.1 µM): 58.1 nM
IC50 (second compound 0.316 µM): < 31.6 nM
IC50 (second compound 1 µM): < 31.6 nM
IC50 (second compound 3.16 µM): 125 nM
IC50 (second compound 10 µM): < 31.6 nM
viability, T/C [1]: 54.6%
viability, T/C [13]: 45.5%
viability, T/C [2]: 38.1%
viability, T/C [14]: 38.7%
viability, T/C [15]: 42.6%
viability, T/C [16]: 32.9%
viability, T/C [3]: 57%
viability, T/C [17]: 47.2%
viability, T/C [4]: 38%
viability, T/C [18]: 47.2%
viability, T/C [19]: 39.2%
viability, T/C [20]: 41.5%
viability, T/C [5]: 57%
viability, T/C [21]: 39%
viability, T/C [6]: 36.4%
viability, T/C [22]: 44.2%
viability, T/C [23]: 45.4%
viability, T/C [24]: 41.1%
viability, T/C [7]: 53.3%
viability, T/C [25]: 38.3%
viability, T/C [8]: 43.6%
viability, T/C [26]: 39.3%
viability, T/C [27]: 40.8%
viability, T/C [28]: 37.9%
viability, T/C [9]: 60.7%
viability, T/C [29]: 49.2%
viability, T/C [10]: 43%
viability, T/C [30]: 42%
viability, T/C [31]: 42.7%
viability, T/C [32]: 30.7%
viability, T/C [11]: 56.7%
viability, T/C [33]: 37.3%
viability, T/C [12]: 38.8%
viability, T/C [34]: 32.7%
viability, T/C [35]: 38.2%
viability, T/C [36]: 36.3%

O=C(NO)c1cnc(N2CCN(S(=O)(=O)c3ccc4ccccc4c3)CC2)nc1 + Cc1[nH]c2ccc(F)cc2c1-c1nc2c3cccnc3c3ncccc3c2[nH]1
IC50 (second compound 0.0316 µM): < 31.6 nM
IC50 (second compound 0.1 µM): < 31.6 nM
IC50 (second compound 0.316 µM): < 31.6 nM
IC50 (second compound 1 µM): < 31.6 nM
IC50 (second compound 3.16 µM): < 31.6 nM
IC50 (second compound 10 µM): < 31.6 nM
viability, T/C [1]: 37.6%
viability, T/C [13]: 28.2%
viability, T/C [2]: 30.4%
viability, T/C [14]: 28.5%
viability, T/C [15]: 27.2%
viability, T/C [16]: 30.4%
viability, T/C [3]: 39.1%
viability, T/C [17]: 25.8%
viability, T/C [4]: 25.8%
viability, T/C [18]: 22%
viability, T/C [19]: 29.8%
viability, T/C [20]: 28%
viability, T/C [5]: 38.3%
viability, T/C [21]: 29.6%
viability, T/C [6]: 29.6%
viability, T/C [22]: 27%
viability, T/C [23]: 26.9%
viability, T/C [24]: 25.5%
viability, T/C [7]: 39.1%
viability, T/C [25]: 30.3%
viability, T/C [8]: 29.2%
viability, T/C [26]: 25.8%
viability, T/C [27]: 27.6%
viability, T/C [28]: 29.3%
viability, T/C [9]: 39.5%
viability, T/C [29]: 34.5%
viability, T/C [10]: 29.7%
viability, T/C [30]: 27.1%
viability, T/C [31]: 26.1%
viability, T/C [32]: 27.7%
viability, T/C [11]: 44.2%
viability, T/C [33]: 31.5%
viability, T/C [12]: 29.5%
viability, T/C [34]: 28.9%
viability, T/C [35]: 29.6%
viability, T/C [36]: 29.8%

O=c1[nH]cc(F)c(=O)[nH]1 + Cc1[nH]c2ccc(F)cc2c1-c1nc2c3cccnc3c3ncccc3c2[nH]1
IC50 (second compound 0.0316 µM): > 10000 nM
IC50 (second compound 0.1 µM): > 10000 nM
IC50 (second compound 0.316 µM): > 10000 nM
IC50 (second compound 1 µM): > 10000 nM
IC50 (second compound 3.16 µM): > 10000 nM
IC50 (second compound 10 µM): > 10000 nM
viability, T/C [1]: 98.4%
viability, T/C [13]: 105%
viability, T/C [2]: 100%
viability, T/C [14]: 101%
viability, T/C [15]: 101%
viability, T/C [16]: 98.3%
viability, T/C [3]: 100%
viability, T/C [17]: 101%
viability, T/C [4]: 101%
viability, T/C [18]: 105%
viability, T/C [19]: 94.9%
viability, T/C [20]: 95.1%
viability, T/C [5]: 90.8%
viability, T/C [21]: 104%
viability, T/C [6]: 106%
viability, T/C [22]: 113%
viability, T/C [23]: 118%
viability, T/C [24]: 81.8%
viability, T/C [7]: 100%
viability, T/C [25]: 96.6%
viability, T/C [8]: 100%
viability, T/C [26]: 88.9%
viability, T/C [27]: 93.9%
viability, T/C [28]: 86.6%
viability, T/C [9]: 96%
viability, T/C [29]: 95.4%
viability, T/C [10]: 88.5%
viability, T/C [30]: 86.7%
viability, T/C [31]: 89.1%
viability, T/C [32]: 82.4%
viability, T/C [11]: 63.3%
viability, T/C [33]: 70.6%
viability, T/C [12]: 80.7%
viability, T/C [34]: 77.5%
viability, T/C [35]: 76.4%
viability, T/C [36]: 72.4%
